# Measured values: paper PMC5449446, “Metabolic Value Chemoattractants Are Preferentially Recognized at Broad Ligand Range Chemoreceptor of Pseudomonas putida KT2440” (Frontiers in Microbiology, 2017)
# B1: PcaY_PP-LBD, recombinant ligand binding domain of the PcaY_PP (PP2643) chemoreceptor of Pseudomonas putida KT2440 (domain or fragment, UniProt Q88JK6 44-196, looked up)
# chain: GSDQQITELDQTAHQSDRLNNALLMAIRSSANVSSGFIEQLGGHDESAGKRMALSVELNNKSQALVDEFVENAREPALRGLATELQATFAEYAKAVAGQREATRQRSLEQYFKVNSDAGNAMGRLQTLRQQLVTTLSERGQQIMLESDRRLAR
# notes: Cloned NdeI/BamHI into pET28b with a stop codon in the reverse primer; No tag removal is described
# Columns and labels:
# [1] = target: McpS; design: method as in ref (7-9) (a number printed in a supplementary file, which may have a reference list of its own: not looked up in the article's list); conditions: ITC, purified recombinant LBD; ref (7-9); cited from earlier work
# [2] = target: McpP; design: method as in ref (6) (a number printed in a supplementary file, which may have a reference list of its own: not looked up in the article's list); conditions: ITC, purified recombinant LBD; ref (6); cited from earlier work
# [3] = tested on: Tar-LBD; design: method as in Milligan and Koshland, 1993; conditions: estimated; ref Milligan and Koshland, 1993; cited from earlier work
# [4] = target: T1, PcaY_PP-LBD (Pseudomonas putida, UniProt Q88JK6); assay: biochemical; assay type: binding, Pseudomonas putida KT2440; conditions: ITC at 25°C, 25 μM protein, One Binding Site model; means and SD of three experiments
# T1 construct: His-tag (from the pET28b vector; inferred from NdeI/BamHI cloning and HisTrap purification) (N); made in house; host or cells: Escherichia coli BL21 (DE3)
# Method: Experiments were carried out at 25°C using a VP-ITC titration calorimeter (Microcal Inc., Northampton, Massachusetts). […] Obtained data were corrected with the heat changes measured for the injection of ligand into buffer. Data were normalized with the protein concentration (Bradford assay) and fitted with the “One Binding Site” model of the MicroCal version of the ORIGIN 7.0 software (OriginLab Corporation, Northampton, MA, United States), leaving all parameters floating.
# [5] = tested on: MCP2983; design: method as in Ni et al., 2015; conditions: ref Ni et al., 2015; cited from earlier work
# [6] = target: the molecule itself; assay: AUC; sedimentation velocity with saturating quinate or shikimate (400 uM), 40,000 rpm, 10°C, analysis buffer (5 mM PIPES, 5 mM MES, 5 mM Tris-HCl, pH 8.0)
# [7] = target: the molecule itself; assay: AUC; multi-speed, multi-wavelength sedimentation equilibrium, ligand-free protein, six concentrations 15-280 uM, 12,000, 14,000 and 18,000 rpm, 10°C, analysis buffer pH 8.0; global fit to a monomer-dimer self-association model (SEDPHAT); dimer to monomers
molecule,measurement,setting,value
CC(=O)O [Acetate],Kd,[1],574 µM
same,Kd,[2],34 µM
N[C@@H](CC(=O)O)C(=O)O [aspartate],"decrease of the dimer self-association constant, factor",[3],around 100
O=C(O)/C=C(/CC(=O)O)C(=O)O [cis-aconitate],KD,[4],did not show any binding
same,binding to recombinant LBD,[5],recognized
B1,stoichiometry N,[6],2
same,Kd,[7],57.5 µM
